Values belong to the molecule of their own block, whether it stands above or below them. The source made the active and inactive calls. The calls are words filed in the database; no cut-off is given here.
What was measured:
[1] = target: T1, Amyloid-beta precursor protein (Homo sapiens, UniProt P05067); test: Inhibition of amyloid beta (1 to 42) (unknown origin) self-aggregation at 20 uM after 24 hrs by thioflavin-T fluorescence assay relative to control
[2] = system: Mus musculus; test: Neuroprotective activity amyloid beta (1 to 42) oligomer-induced memory impaired Kunming mouse assessed as reduction in apoptotic cells in CA1 and CA3 hipocampal neurons at 35 mg/kg, po starting from day 1 of amyloid beta (1 to 42) oligomer treatment and measured on day 7 by TUNEL assay; assay type: functional, organism-based
[3] = target: T1, Amyloid-beta precursor protein; test: Potency index, ratio of IC50 for curcumin to IC50 for test compound for inhibition of amyloid beta (1 to 42) (unknown origin) self-aggregation after 24 hrs by thioflavin-T fluorescence assay
[4] = system: Mus musculus; test: (§1) Memory enhancing effect in Kunming mouse model of amyloid beta (1 to 42) oligomer-induced memory impairment assessed as increase in preferential index in retention session of 1 hr at 17.5 to 35 mg/kg/day, po starting from day 1 of amyloid beta (1 to 42) oligomer treatment and measured on day 7 by novel object recognition test; assay type: functional, organism-based
[5] = system: SH-SY5Y; test: Cytotoxicity against human SH-SY5Y cells at 50 uM after 24 hrs by MTT assay; assay type: cell-based
[6] = system: SH-SY5Y; test: Neuroprotective activity against H2O2-induced oxidative stress in human SH-SY5Y cells assessed as cell viability at 12.5 uM pre-incubated for 1 hr followed by H2O2 addition and measured after 4 hrs by MTT assay relative to control; assay type: functional; conditions: read-out: Activity
[7] = target: T1, Amyloid-beta precursor protein; test: Inhibition of amyloid beta (1 to 42) (unknown origin) self-aggregation after 24 hrs by thioflavin-T fluorescence assay
[8] = system: Mus musculus; test: (§2) Neuroprotective activity in Kunming mouse model of amyloid beta (1 to 42) oligomer-induced memory impairment assessed as reduction in neuronal degeneration by measuring clear and intact neurons in CA1 and CA3 region at 17.5 to 35 mg/kg, po starting from day 1 of amyloid beta (1 to 42) oligomer treatment and measured on day 7 by TUNEL assay; assay type: functional, organism-based
[9] = system: Mus musculus; test: (§3) Neuroprotective activity in Kunming mouse model of amyloid beta (1 to 42) oligomer-induced memory impairment assessed as reduction in neuronal degeneration by measuring reduction in degenerative changes in nucleus of CA1 and CA3 region at 17.5 to 35 mg/kg, po starting from day 1 of amyloid beta (1 to 42) oligomer treatment and measured on day 7 by TUNEL assay; assay type: functional, organism-based
[10] = system: Mus musculus; test: (§4) Cognitive enhancing effect in Kunming mouse model of amyloid beta (1 to 42) oligomer-induced memory impairment assessed as reduction in spontaneous alternation behaviors at 17.5 to 35 mg/kg/day, po starting from day 1 of amyloid beta (1 to 42) oligomer treatment and measured on day 7 by Y-maze test; assay type: functional, organism-based
[11] = system: SH-SY5Y; test: Neuroprotective activity against H2O2-induced oxidative stress in human SH-SY5Y cells assessed as cell viability at 25 uM pre-incubated for 1 hr followed by H2O2 addition and measured after 4 hrs by MTT assay relative to control; assay type: functional; conditions: read-out: Activity
[12] = system: Mus musculus; test: as §2, with “neural” for “neuronal”, “degeneration” for “degeneration by measuring clear and intact neurons”, “CA1” for “CA1 and CA3”, “Nissl's staining-based” for “TUNEL”; assay type: functional, organism-based
[13] = system: Mus musculus; test: (§5) Cognitive enhancing effect in Kunming mouse model of amyloid beta (1 to 42) oligomer-induced memory impairment increase in time spent in target quadrant by measuring increase in number of platform crossings at 17.5 to 35 mg/kg/day, po starting from day 1 of amyloid beta (1 to 42) oligomer treatment and measured on day 12 by Morris water maze test; assay type: functional, organism-based
[14] = system: SH-SY5Y; test: Neuroprotective activity against H2O2-induced oxidative stress in human SH-SY5Y cells assessed as cell viability at 50 uM pre-incubated for 1 hr followed by H2O2 addition and measured after 4 hrs by MTT assay relative to control; assay type: functional; conditions: read-out: Activity
[15] = system: Mus musculus; test: as §4, with “induction of fewer entries into dark compartment” for “reduction in spontaneous alternation behaviors”, “mg/kg,” for “mg/kg/day,”, “passive avoidance” for “Y-maze”; assay type: functional, organism-based
[16] = system: Mus musculus; test: Toxicity in Kunming mouse model of amyloid beta (1 to 42) oligomer-induced memory impairment assessed as effect on number of arm entries at 17.5 to 35 mg/kg/day, po starting from day 1 of amyloid beta (1 to 42) oligomer treatment and measured on day 7 by Y-maze test; assay type: organism-based; conditions: in vivo
[17] = system: Mus musculus; test: (§6) Cognitive enhancing effect in Kunming mouse model of amyloid beta (1 to 42) oligomer-induced memory impairment assessed as longer escape latency at 17.5 to 35 mg/kg, po starting from day 1 of amyloid beta (1 to 42) oligomer treatment and measured on day 7 by passive avoidance test; assay type: functional, organism-based
[18] = system: Mus musculus; test: as §6, with “induction of fewer entries into dark compartment” for “longer escape latency”, “1.3” for “17.5 to 35”; assay type: functional, organism-based
[19] = system: Mus musculus; test: Neuroprotective activity amyloid beta (1 to 42) oligomer-induced memory impaired Kunming mouse assessed as reduction in apoptotic cells in CA1 and CA3 hipocampal neurons at 1.3 mg/kg, po starting from day 1 of amyloid beta (1 to 42) oligomer treatment and measured on day 7 by TUNEL assay; assay type: functional, organism-based
[20] = system: Mus musculus; test: Cognitive enhancing effect in Kunming mouse model of amyloid beta (1 to 42) oligomer-induced memory impairment assessed as longer escape latency at 1.3 mg/kg, po starting from day 1 of amyloid beta (1 to 42) oligomer treatment and measured on day 7 by passive avoidance test; assay type: functional, organism-based
[21] = system: Mus musculus; test: as §2, with “1.3” for “17.5 to 35”; assay type: functional, organism-based
[22] = system: Mus musculus; test: as §5, with “1.3” for “17.5 to 35”; assay type: functional, organism-based
[23] = system: Mus musculus; test: as §3, with “1.3” for “17.5 to 35”; assay type: functional, organism-based
[24] = system: Mus musculus; test: Cognitive enhancing effect in Kunming mouse model of amyloid beta (1 to 42) oligomer-induced memory impairment assessed as […] in spontaneous alternation behaviors at 1.3 mg/kg/day, po starting from day 1 of amyloid beta (1 to 42) oligomer treatment and measured on day 7 by Y-maze test; assay type: functional, organism-based
[25] = system: Mus musculus; test: Toxicity in Kunming mouse model of amyloid beta (1 to 42) oligomer-induced memory impairment assessed as effect on number of arm entries at 1.3 mg/kg/day, po starting from day 1 of amyloid beta (1 to 42) oligomer treatment and measured on day 7 by Y-maze test; assay type: organism-based; conditions: in vivo
[26] = system: Mus musculus; test: Neuroprotective activity in Kunming mouse model of amyloid beta (1 to 42) oligomer-induced memory impairment assessed as reduction in neural degeneration in CA1 region at 1.3 mg/kg, po starting from day 1 of amyloid beta (1 to 42) oligomer treatment and measured on day 7 by Nissl's staining-based assay; assay type: functional, organism-based
[27] = system: Mus musculus; test: as §1, with “1.3” for “17.5 to 35”; assay type: functional, organism-based
[28] = system: Mus musculus; test: as §1, with “17.5” for “17.5 to 35”; assay type: functional, organism-based
[29] = system: Mus musculus; test: Cognitive enhancing effect in Kunming mouse model of amyloid beta (1 to 42) oligomer-induced memory impairment assessed as longer escape latency at 35 mg/kg, po starting from day 1 of amyloid beta (1 to 42) oligomer treatment and measured on day 7 by passive avoidance test; assay type: functional, organism-based
[30] = system: Mus musculus; test: Cognitive enhancing effect in Kunming mouse model of amyloid beta (1 to 42) oligomer-induced memory impairment assessed as induction of fewer entries into dark compartment at 35 mg/kg, po starting from day 1 of amyloid beta (1 to 42) oligomer treatment and measured on day 7 by passive avoidance test; assay type: functional, organism-based

T1 sequence (P05067 whole entry): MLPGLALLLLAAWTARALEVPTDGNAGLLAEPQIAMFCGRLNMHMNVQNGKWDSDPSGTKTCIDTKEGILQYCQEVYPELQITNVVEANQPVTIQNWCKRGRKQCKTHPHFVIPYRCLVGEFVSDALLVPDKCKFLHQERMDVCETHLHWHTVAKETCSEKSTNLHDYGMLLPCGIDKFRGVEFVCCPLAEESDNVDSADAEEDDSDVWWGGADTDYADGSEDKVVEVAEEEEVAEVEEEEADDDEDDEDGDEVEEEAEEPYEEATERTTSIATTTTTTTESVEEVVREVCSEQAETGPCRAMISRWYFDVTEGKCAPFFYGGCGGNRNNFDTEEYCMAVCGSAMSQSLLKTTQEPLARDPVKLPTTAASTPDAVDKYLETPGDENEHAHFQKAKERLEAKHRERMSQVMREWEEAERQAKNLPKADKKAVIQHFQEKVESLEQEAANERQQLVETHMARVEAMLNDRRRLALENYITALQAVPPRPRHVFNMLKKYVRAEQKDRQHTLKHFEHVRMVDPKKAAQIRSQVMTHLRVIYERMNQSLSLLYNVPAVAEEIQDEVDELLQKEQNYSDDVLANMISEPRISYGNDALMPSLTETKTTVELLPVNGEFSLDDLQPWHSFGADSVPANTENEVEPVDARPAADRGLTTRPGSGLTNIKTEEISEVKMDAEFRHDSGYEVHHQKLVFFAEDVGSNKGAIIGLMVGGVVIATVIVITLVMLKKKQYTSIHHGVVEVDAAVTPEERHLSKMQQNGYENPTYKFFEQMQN

inhibition [1]: 31.5%
SMILES: COc1cc(Cn2cc(CNC(=O)[C@@H](C)CC[C@H]3O[C@H]4C[C@H]5[C@@H]6CC[C@@H]7C[C@@H](OCc8ccccc8)CC[C@]7(C)[C@H]6CC[C@]5(C)[C@H]4[C@@H]3C)nn2)cc(OC)c1

Ratio IC50 [3]: 1.8
IC50 [7]: 8.28 µM
inhibition [1]: 75.1%
SMILES: C[C@H]1[C@H]2[C@H](C[C@H]3[C@@H]4CC[C@@H]5C[C@@H](OCc6ccccc6)CC[C@]5(C)[C@H]4CC[C@]23C)O[C@@H]1CC[C@H](C)C(=O)NCc1cn(Cc2cscn2)nn1
Activity [2]: Active
Activity [4]: Active
Activity [5]: Non-Toxic
viability at 12.5 µM [6]: 71.6%
Activity [8]: Active
Activity [9]: Active
Activity [10]: Active
viability at 25 µM [11]: 73.3%
Activity [12]: Active
Activity [13]: Active
viability at 50 µM [14]: 84.9%
Activity [15]: Active
Activity [16]: Non-Toxic
Activity [17]: Active

inhibition [1]: 55.8%
SMILES: C[C@H]1[C@H]2[C@H](C[C@H]3[C@@H]4CC[C@@H]5C[C@@H](OCc6ccccc6)CC[C@]5(C)[C@H]4CC[C@]23C)O[C@@H]1CC[C@H](C)C(=O)NCc1cn(Cc2ccc(Br)cc2)nn1

inhibition [1]: 64.2%
SMILES: C[C@H]1[C@H]2[C@H](C[C@H]3[C@@H]4CC[C@@H]5C[C@@H](OCc6ccccc6)CC[C@]5(C)[C@H]4CC[C@]23C)O[C@@H]1CC[C@H](C)C(=O)NCc1cn(Cc2ccccc2)nn1

SMILES: COc1cc2c(cc1OC)C(=O)C(CC1CCN(Cc3ccccc3)CC1)C2.Cl (stereo not given) [DONEPEZIL HYDROCHLORIDE]
Activity [18]: Active
Activity [19]: Active
Activity [20]: Active
Activity [21]: Active
Activity [22]: Active
Activity [23]: Active
Activity [24]: Active
Activity [25]: Non-Toxic
Activity [26]: Active
Activity [27]: Active

inhibition [1]: 52.6%
SMILES: CC(C)n1cc(CNC(=O)[C@@H](C)CC[C@H]2O[C@H]3C[C@H]4[C@@H]5CC[C@@H]6C[C@@H](OCc7ccccc7)CC[C@]6(C)[C@H]5CC[C@]4(C)[C@H]3[C@@H]2C)nn1

inhibition [1]: 11.8%
SMILES: CCn1cc(CNC(=O)[C@@H](C)CC[C@H]2O[C@H]3C[C@H]4[C@@H]5CC[C@@H]6C[C@@H](OCc7ccccc7)CC[C@]6(C)[C@H]5CC[C@]4(C)[C@H]3[C@@H]2C)nn1

inhibition [1]: 70.7%
SMILES: C[C@H]1[C@H]2[C@H](C[C@H]3[C@@H]4CC[C@@H]5C[C@@H](OCc6ccccc6)CC[C@]5(C)[C@H]4CC[C@]23C)O[C@@H]1CC[C@H](C)C(=O)NCc1cn(Cc2ccc([N+](=O)[O-])cc2)nn1

SMILES: Cc1c(C)c2c(c(C)c1O)CCC(C)(C(=O)O)O2 (stereo not given) [TROLOX]
viability at 12.5 µM [6]: 78.4%
viability at 25 µM [11]: 80.1%
viability at 50 µM [14]: 78.4%

inhibition [1]: 8.34%
SMILES: C[C@H]1[C@H]2[C@H](C[C@H]3[C@@H]4CC[C@@H]5C[C@@H](OCc6ccccc6)CC[C@]5(C)[C@H]4CC[C@]23C)O[C@@H]1CC[C@H](C)C(=O)NCc1cn(C)nn1

inhibition [1]: 20.8%
SMILES: C[C@H]1[C@H]2[C@H](C[C@H]3[C@@H]4CC[C@@H]5C[C@@H](OCc6ccccc6)CC[C@]5(C)[C@H]4CC[C@]23C)O[C@@H]1CC[C@H](C)C(=O)NCc1cn(Cc2ccncc2)nn1

inhibition [1]: 70.5%
SMILES: C[C@H]1[C@H]2[C@H](C[C@H]3[C@@H]4CC[C@@H]5C[C@@H](OCc6ccccc6)CC[C@]5(C)[C@H]4CC[C@]23C)O[C@@H]1CC[C@H](C)C(=O)NCc1cn(Cc2ccc(Cl)cc2)nn1

inhibition [1]: 71.2%
SMILES: Cc1ccc(Cn2cc(CNC(=O)[C@@H](C)CC[C@H]3O[C@H]4C[C@H]5[C@@H]6CC[C@@H]7C[C@@H](OCc8ccccc8)CC[C@]7(C)[C@H]6CC[C@]5(C)[C@H]4[C@@H]3C)nn2)cc1

inhibition [1]: 21.8%
SMILES: CCCn1cc(CNC(=O)[C@@H](C)CC[C@H]2O[C@H]3C[C@H]4[C@@H]5CC[C@@H]6C[C@@H](OCc7ccccc7)CC[C@]6(C)[C@H]5CC[C@]4(C)[C@H]3[C@@H]2C)nn1

inhibition [1]: 64.8%
SMILES: COc1cccc(Cn2cc(CNC(=O)[C@@H](C)CC[C@H]3O[C@H]4C[C@H]5[C@@H]6CC[C@@H]7C[C@@H](OCc8ccccc8)CC[C@]7(C)[C@H]6CC[C@]5(C)[C@H]4[C@@H]3C)nn2)c1

inhibition [1]: 37.5%
SMILES: C[C@H]1[C@H]2[C@H](C[C@H]3[C@@H]4CC[C@@H]5C[C@@H](OCc6ccccc6)CC[C@]5(C)[C@H]4CC[C@]23C)O[C@@H]1CC[C@H](C)C(=O)NCc1cn(Cc2ccc(F)cc2)nn1

SMILES: C[C@H]1CC[C@@]2(OC1)O[C@H]1C[C@H]3[C@@H]4CC[C@@H]5C[C@@H](O)CC[C@]5(C)[C@H]4CC[C@]3(C)[C@H]1[C@@H]2C [SARSASAPOGENIN]
viability at 12.5 µM [6]: 68.2%
IC50 [7]: > 100 µM
inhibition [1]: 16.4%
viability at 25 µM [11]: 71%
viability at 50 µM [14]: 71.3%

Ratio IC50 [3]: 2.6
IC50 [7]: 5.84 µM
inhibition [1]: 84.7%
SMILES: COc1ccc(Cn2cc(CNC(=O)[C@@H](C)CC[C@H]3O[C@H]4C[C@H]5[C@@H]6CC[C@@H]7C[C@@H](OCc8ccccc8)CC[C@]7(C)[C@H]6CC[C@]5(C)[C@H]4[C@@H]3C)nn2)cc1
Activity [2]: Active
Activity [5]: Non-Toxic
viability at 12.5 µM [6]: 71.8%
Activity [28]: Active
Activity [8]: Active
Activity [9]: Active
Activity [29]: Active
Activity [10]: Active
Activity [30]: Active
viability at 25 µM [11]: 80.9%
Activity [12]: Active
Activity [13]: Active
viability at 50 µM [14]: 63.1%
Activity [16]: Non-Toxic
